This is an account of results in ChEMBL document CHEMBL5236568, “Discovery of 3,4-dihydropyrimido[4,5-d]pyrimidin-2(1H)-one and 3,4-dihydropyrido[2,3-d]pyrimidin-2(1H)-one derivatives as novel ENPP1 inhibitors” (Bioorg Med Chem Lett, 2022).

The target of data set [1] is T1, Ectonucleotide pyrophosphatase/phosphodiesterase family member 1 (Homo sapiens) (UniProt P22413).
T1 sequence (whole entry): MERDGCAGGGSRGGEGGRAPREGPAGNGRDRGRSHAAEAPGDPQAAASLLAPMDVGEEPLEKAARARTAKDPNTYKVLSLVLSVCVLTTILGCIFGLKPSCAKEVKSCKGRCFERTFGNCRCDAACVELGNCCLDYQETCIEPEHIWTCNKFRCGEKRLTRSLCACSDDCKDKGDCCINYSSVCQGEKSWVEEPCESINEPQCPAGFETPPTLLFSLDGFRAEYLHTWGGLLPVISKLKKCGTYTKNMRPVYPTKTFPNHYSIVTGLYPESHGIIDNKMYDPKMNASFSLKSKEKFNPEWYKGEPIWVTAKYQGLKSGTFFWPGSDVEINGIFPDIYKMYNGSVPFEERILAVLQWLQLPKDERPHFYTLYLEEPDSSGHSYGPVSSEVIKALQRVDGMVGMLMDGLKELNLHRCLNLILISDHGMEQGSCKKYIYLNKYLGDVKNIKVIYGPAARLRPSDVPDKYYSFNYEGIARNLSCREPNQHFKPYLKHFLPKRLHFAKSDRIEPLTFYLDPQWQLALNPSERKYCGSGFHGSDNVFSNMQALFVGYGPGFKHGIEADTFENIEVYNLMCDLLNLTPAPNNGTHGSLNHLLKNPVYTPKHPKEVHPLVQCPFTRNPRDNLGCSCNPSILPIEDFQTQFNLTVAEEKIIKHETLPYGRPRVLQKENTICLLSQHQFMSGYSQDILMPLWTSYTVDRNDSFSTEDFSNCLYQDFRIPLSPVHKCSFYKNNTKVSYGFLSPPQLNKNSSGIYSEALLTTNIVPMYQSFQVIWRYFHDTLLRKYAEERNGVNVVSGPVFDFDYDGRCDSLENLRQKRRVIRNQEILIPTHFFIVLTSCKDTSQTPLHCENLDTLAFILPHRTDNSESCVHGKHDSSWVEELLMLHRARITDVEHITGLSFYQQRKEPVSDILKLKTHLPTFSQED
Briefly: Inhibition of ENPP1 (unknown origin) at 10 uM relative to control.

Data set [2] concerns the target T2, Ectonucleotide pyrophosphatase/phosphodiesterase family member 1 (Homo sapiens, UniProt P22413).
T2 sequence (P22413 whole entry): T1 sequence (whole entry)
The experiment in a line: Inhibition of ENPP1 (unknown origin).

Data set [3] can be described thus: Metabolic stability in human liver microsomes assessed as compound remaining at 1 uM after 30 mins. The class given is ADME, Microsome. Conditions: read-out: Stability. On the technique in general: Liver microsomes are a subcellular fraction often used to study metabolism.
Data set [4] can be described thus: Metabolic stability in rat liver microsomes assessed as compound remaining at 1 uM after 30 mins. As to conditions: read-out: Stability. It counts as ADME, Microsome.
The nature of data set [5]: Metabolic stability in mouse liver microsomes assessed as compound remaining at 1 uM after 30 mins. As to conditions: read-out: Stability. The class given is ADME, Microsome.
The target of another data set is T3, CYP1A2 (Homo sapiens, UniProt P05177).
T3 sequence (P05177 whole entry): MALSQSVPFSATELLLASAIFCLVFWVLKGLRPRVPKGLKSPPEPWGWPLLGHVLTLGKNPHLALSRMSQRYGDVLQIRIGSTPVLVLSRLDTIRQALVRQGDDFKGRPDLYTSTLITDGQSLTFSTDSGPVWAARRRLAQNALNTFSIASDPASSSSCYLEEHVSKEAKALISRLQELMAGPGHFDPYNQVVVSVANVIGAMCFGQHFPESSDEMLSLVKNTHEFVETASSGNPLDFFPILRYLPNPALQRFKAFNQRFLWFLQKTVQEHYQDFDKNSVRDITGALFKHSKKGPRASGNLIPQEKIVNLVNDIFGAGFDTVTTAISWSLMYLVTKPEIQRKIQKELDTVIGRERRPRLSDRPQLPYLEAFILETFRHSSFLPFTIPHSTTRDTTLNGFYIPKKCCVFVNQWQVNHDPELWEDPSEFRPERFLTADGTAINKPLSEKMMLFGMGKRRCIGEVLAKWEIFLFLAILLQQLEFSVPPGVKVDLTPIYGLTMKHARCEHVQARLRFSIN
The experiment in a line: Inhibition of CYP1A2 (unknown origin) assessed as remaining activity at 10 uM relative to control. The class given is ADME. Conditions: read-out: Activity.

In a further data set the target is CYP2D6 (Homo sapiens, UniProt P10635). Briefly: Inhibition of CYP2D6 (unknown origin) assessed as remaining activity at 10 uM relative to control. It counts as ADME. Conditions: read-out: Activity.
Sequence of CYP2D6 (P10635 whole entry): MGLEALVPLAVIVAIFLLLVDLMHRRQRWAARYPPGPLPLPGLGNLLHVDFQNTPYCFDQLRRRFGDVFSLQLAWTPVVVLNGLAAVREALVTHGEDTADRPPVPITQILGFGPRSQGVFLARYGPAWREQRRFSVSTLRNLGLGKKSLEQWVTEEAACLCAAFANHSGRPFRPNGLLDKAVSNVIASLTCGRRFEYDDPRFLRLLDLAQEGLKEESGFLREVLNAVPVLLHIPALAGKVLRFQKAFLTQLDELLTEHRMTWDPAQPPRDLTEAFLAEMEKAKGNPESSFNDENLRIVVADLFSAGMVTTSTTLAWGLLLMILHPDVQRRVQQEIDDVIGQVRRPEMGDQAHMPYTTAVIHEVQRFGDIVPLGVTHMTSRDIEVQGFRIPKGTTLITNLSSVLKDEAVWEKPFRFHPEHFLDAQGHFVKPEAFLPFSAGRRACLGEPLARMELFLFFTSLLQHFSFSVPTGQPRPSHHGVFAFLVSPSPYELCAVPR
The target in another data set is CYP3A4 (Homo sapiens, UniProt P08684). Briefly: Inhibition of CYP3A4 (unknown origin) assessed as remaining activity at 10 uM relative to control. The class given is ADME. Conditions: read-out: Activity.
Sequence of CYP3A4 (P08684 whole entry): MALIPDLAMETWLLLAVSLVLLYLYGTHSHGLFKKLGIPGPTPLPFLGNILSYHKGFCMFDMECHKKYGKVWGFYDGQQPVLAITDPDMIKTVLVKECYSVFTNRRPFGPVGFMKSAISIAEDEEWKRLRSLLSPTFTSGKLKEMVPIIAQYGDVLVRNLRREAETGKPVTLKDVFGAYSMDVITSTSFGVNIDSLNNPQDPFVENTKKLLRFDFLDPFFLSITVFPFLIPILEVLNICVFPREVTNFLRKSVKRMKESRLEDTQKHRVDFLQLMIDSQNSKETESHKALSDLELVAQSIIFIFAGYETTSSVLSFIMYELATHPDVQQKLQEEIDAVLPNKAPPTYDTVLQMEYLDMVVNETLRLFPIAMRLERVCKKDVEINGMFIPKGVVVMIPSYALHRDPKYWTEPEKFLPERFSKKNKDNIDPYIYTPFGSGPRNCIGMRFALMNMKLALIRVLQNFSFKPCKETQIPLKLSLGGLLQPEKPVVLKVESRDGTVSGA
The next data set addresses CYP2C19 (Homo sapiens, UniProt P33261). The experiment in a line: Inhibition of CYP2C19 (unknown origin) assessed as remaining activity at 10 uM relative to control. It counts as ADME. As to conditions: read-out: Activity.
The target of another data set is CYP2C9 (Homo sapiens, UniProt P11712). The experiment in a line: Inhibition of CYP2C9 (unknown origin) assessed as remaining activity at 10 uM relative to control. It counts as ADME. Conditions: read-out: Activity.
Sequence of CYP2C9 (P11712 whole entry): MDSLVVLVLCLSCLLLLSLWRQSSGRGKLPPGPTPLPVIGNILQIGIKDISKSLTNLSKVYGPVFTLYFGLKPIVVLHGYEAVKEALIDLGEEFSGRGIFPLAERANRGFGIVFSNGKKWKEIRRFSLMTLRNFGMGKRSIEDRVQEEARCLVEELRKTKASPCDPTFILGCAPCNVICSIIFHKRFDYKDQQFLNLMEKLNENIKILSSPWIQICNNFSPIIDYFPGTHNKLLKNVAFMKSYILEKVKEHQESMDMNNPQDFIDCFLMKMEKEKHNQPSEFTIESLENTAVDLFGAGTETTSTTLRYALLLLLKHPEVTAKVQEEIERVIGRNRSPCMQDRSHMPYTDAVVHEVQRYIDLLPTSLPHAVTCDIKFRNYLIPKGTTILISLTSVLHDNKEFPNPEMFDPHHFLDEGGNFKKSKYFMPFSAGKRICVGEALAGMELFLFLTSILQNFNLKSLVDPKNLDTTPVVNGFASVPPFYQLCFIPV

pIC50: −log10 of the molar value. Bounds are passed on as bounds.

Sequence of CYP2C19 (P33261 whole entry): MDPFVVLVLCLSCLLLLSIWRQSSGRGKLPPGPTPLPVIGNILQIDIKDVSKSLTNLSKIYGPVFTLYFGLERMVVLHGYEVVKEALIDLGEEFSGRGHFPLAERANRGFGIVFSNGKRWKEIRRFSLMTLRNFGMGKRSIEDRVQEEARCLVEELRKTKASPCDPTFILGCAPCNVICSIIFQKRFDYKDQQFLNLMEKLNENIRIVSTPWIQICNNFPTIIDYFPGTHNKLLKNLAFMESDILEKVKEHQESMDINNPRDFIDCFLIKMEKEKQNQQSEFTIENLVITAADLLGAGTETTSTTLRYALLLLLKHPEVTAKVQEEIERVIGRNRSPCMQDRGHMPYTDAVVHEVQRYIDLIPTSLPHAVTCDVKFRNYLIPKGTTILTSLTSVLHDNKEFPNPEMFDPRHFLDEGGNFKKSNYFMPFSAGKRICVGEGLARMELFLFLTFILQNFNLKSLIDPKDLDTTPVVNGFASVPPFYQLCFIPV

Take `Cc1ccc(S(=O)(=O)NCc2cccc(-c3ncnc4c3CN(C)C(=O)N4)c2)cc1`: the inhibition (usually the drop in the measured response relative to a control, in per cent) in data set [1] was determined as 68%.
As for `CN1Cc2c(ncnc2N2CCC3(CC2)CCN(S(N)(=O)=O)C3)NC1=O`, the pIC50 – broadly, the negative decadic logarithm of the IC50, by convention in mol/L – in data set [2] was 6.79. Moreover, the inhibition in [1] was 100%.
Turning to `CN1Cc2c(ncnc2N2CCC(C)(CNS(N)(=O)=O)CC2)NC1=O`, the remaining at 0.5 h, 1 µM in data set [3] came out at 85.9%; in [4], 82.3%; in [5], 96.4%. Further, the pIC50 in data set [2] was 8.43. For the same compound, the activity at 10 µM is 94.3% at CYP1A2; 90.9% at CYP2D6; 89.7% at CYP3A4; over 100% on CYP2C19; 89.4% on CYP2C9. In data set [1], this compound gave an inhibition of 100%.
Take `NS(=O)(=O)Nc1cccc(-c2ccnc3c2CN(C2CC2)C(=O)N3)c1`: the negative-log IC50 (pIC50) in [2] is 5.13. The compound further displayed an inhibition in data set [1] of 62%.
Compound `CN1Cc2c(-c3ccc(CNS(N)(=O)=O)cc3)ccnc2N(C)C1=O` gave a pIC50 in data set [2] of 6.49. Moreover, in data set [1], the inhibition worked out at 96%.
For `CN1Cc2c(-c3cccc(CNS(N)(=O)=O)c3)ccnc2NC1=O`, in that order: 6.28 and 96%.
`CN1Cc2c(N3CCC(CCNS(N)(=O)=O)CC3)ncnc2N(C)C1=O` returned an inhibition in [1] of 62%.
`NS(=O)(=O)NCc1ccc(-c2ccnc3c2CN(C2CC2)C(=O)N3)cc1` showed an inhibition in [1] of 35%.
Take `CN1Cc2c(ncnc2N2CCC(C)(NS(N)(=O)=O)CC2)NC1=O`: in data set [2], the pIC50 is 6.63. The compound further gave an inhibition in data set [1] of 98%.
Take `CN1Cc2c(-c3ccc(CNS(N)(=O)=O)c(F)c3)ccnc2NC1=O`: the remaining at 0.5 h, 1 µM in [3] is 86.9%; in [4] it was 86.7%; in [5] it was 91.1%. Moreover, the pIC50 in data set [2] is 7.49. The activity at 10 µM at CYP1A2, on CYP2D6, at CYP3A4, on CYP2C19 and at CYP2C9 was over 100% each time. In [1], the inhibition was 99%.
On to `CN1Cc2c(-c3ccc(CNS(N)(=O)=O)cc3)ccnc2NC1=O`, for which, in data set [2], the pIC50 was 6.41. This compound also came in with an inhibition in [1] of 100%.
The compound `CN1Cc2c(-c3ccc(CNS(N)(=O)=O)cc3)ccnc2N(Cc2ccccc2)C1=O` had an inhibition in [1] of 0%.
In the case of `CN1Cc2c(ncnc2-c2cccc(NS(N)(=O)=O)c2)NC1=O`, the pIC50 in data set [2] is 6.44. The compound also registered an inhibition in data set [1] of 100%.
The compound `CN1Cc2c(NCc3ccc(NS(N)(=O)=O)cc3)ncnc2NC1=O` showed a pIC50 in data set [2] of 7.35. The compound also gave an inhibition in [1] of 100%.
The like results for `CN1Cc2c(-c3ccc(CN(C)S(N)(=O)=O)cc3)ccnc2NC1=O` were, in that order, 5.94 and 80%.
For `CN1Cc2c(ncnc2-c2ccc(CNS(N)(=O)=O)c(F)c2)NC1=O`, in that order: 6.04 and 96%.
The compound `CN1Cc2c(ncnc2N2CCC(C)(CCNS(N)(=O)=O)CC2)NC1=O` had a pIC50 in [2] of 6.17. In addition, in data set [1], the inhibition turned out to be 93%.
For `CN1Cc2c(ncnc2-c2ccc(CNS(N)(=O)=O)cc2)NC1=O`, in that order: 6.34 and 97%.
As for `CN1Cc2c(ncnc2Nc2ccc(NS(N)(=O)=O)cc2)NC1=O`, the inhibition in data set [1] came out at 67%.
The same measure, in the same setting: the figure for `NS(=O)(=O)NCc1cccc(-c2ccnc3c2CNC(=O)N3)c1` is 20%.
`CN1Cc2c(ncnc2-c2cccc(CNS(N)(=O)=O)c2)NC1=O`: in data set [2], the pIC50 is 6.77. The inhibition in data set [1] came out at 99%.
For `CN1Cc2c(ncnc2N2CCC(CNS(N)(=O)=O)CC2)NC1=O`, in that order: 7.32 and 100%.
`CN1Cc2c(ncnc2-c2cccc(CNS(C)(=O)=O)c2)NC1=O`: the inhibition in [1] worked out at 30%.
Turning to `CN1Cc2c(ncnc2N2CCC(NS(N)(=O)=O)CC2)NC1=O`, the negative logarithm of the IC50 (pIC50) in data set [2] was 6.12. In data set [1], this compound returned an inhibition of 93%.
The compound `CN1Cc2c(-c3cccc(NS(N)(=O)=O)c3)ccnc2NC1=O` gave a pIC50 in data set [2] of 6.12. The compound also returned an inhibition in data set [1] of 95%.
Compound `NS(=O)(=O)NCc1ccc(-c2ccnc3c2CN(Cc2ccccc2)C(=O)N3)cc1` yielded an inhibition in data set [1] of 9%.
With `Cc1ccc(S(=O)(=O)NCc2cccc(-c3ccnc4c3CN(C)C(=O)N4)c2)cc1`, the inhibition in [1] worked out at 4%.
Same read-out and setting: in the case of `CN1Cc2c(-c3cccc(CNS(C)(=O)=O)c3)ccnc2NC1=O` it was 15%.
For the compound `CN1Cc2c(ncnc2N2CCC(CCNS(N)(=O)=O)CC2)NC1=O`, the pIC50 in data set [2] is 6.11. In data set [1], the inhibition was found to be 96%.
